Laboratory results as given in US20090255006A1, “Transgenic Zebrafish” (University of Georgia Research Foundation, Inc., priority 2008, published 2009).
“Also recorded” adds a separate entry of the source. Where two headings read alike, the source gives them in different places. Blank lines part the entries; values can stand above or below the compound they belong to.

Columns and labels:
Nodal receptors [1] = details: cited from earlier work
Nodal receptors [2] = assay: Block of Nodal signaling with SB-505124 in Tg-SqtapGFPi embryos, gfp in situ hybridization; assay type: in vivo, zebrafish; details: 50 μM
sqt and cyc transcripts = assay: Targeted injection of morpholinos into the YSL, morphology of live embryos; assay type: in vivo, zebrafish; details: 8 ng MO into YSL at 3 hpf
Procedure: Wild-type embryos were obtained from natural crosses of Wik fish. Collected embryos were maintained at 28.5° C. and staged according to morphological criteria (Kimmel et al., Dev. Dyn., 203:253-310 (1995). Translation blocking morpholinos against sqt and cyc have been described previously (Feldman and Stemple, Genesis, 30: 175-177 (2001); Karlen and Rebagliati, Genesis, 30: 126-128 (2001). The MO sequences are as follows: sqtMO: 5′-[…]-3′ (SEQ ID NO:1); sqtMIS: ATcTgAAAATgAAGcTAATAATgCAC-3′ (SEQ ID NO:2); cycMO: 5′-[…]-3′ (SEQ ID NO:3); cycMIS: 5′-GCcACTgCGAaGTGTGgTcAT-3′(SEQ ID NO:4). Nucleotides in lower case represent mismatches. The sqtMOs were tagged with lissamine, while the cycMOs were tagged with fluorescein. Embryos were injected with each MO at 3 hpf soon after formation of the YSL. The distribution of the MO in the YSL was verified 2 h after injection. Embryos with mislocalized MOs were removed from the experiments.
To test if sqt and cyc are required in the YSL, their function in this tissue was specifically knocked down by targeted injection of antisense morpholinos (MOs) directed against sqt and cyc transcripts. […] When cyc function alone is depleted from the YSL, all embryos have normal shields (100%, N=36) (FIG. 5E, arrow). At 24 hpf, the cyc-depleted embryos, are indistinguishable from embryos injected with control MOs (100%, N=22) (FIG. 5F). When sqt function is depleted from the YSL, by contrast, the majority of embryos lack the embryonic shield ([…], N=11) (FIG. 5G).

- overall levels of gfp expression (Nodal receptors [2]): reduced
Compound: Cc1cccc(-c2[nH]c(C(C)(C)C)nc2-c2ccc3c(c2)OCO3)n1 [SB-505124]
- phenotype of treated embryos (Nodal receptors [1]; 50 μM, added to embryos at 3 hpf or earlier): sufficient to phenocopy embryos lacking nodal-related gene function
- phenotype of treated embryos (Nodal receptors [1]; later treatments, or lower doses): milder phenotypes
- gfp expression in the EVL (Nodal receptors [2]): reduced, but not eliminated; also recorded: reduced to a greater extent
- gfp expression in the YSL (Nodal receptors [2]): consistently reduced, but not completely eliminated; also recorded: persists
- gfp expression in the blastomeres (Nodal receptors [2]): eliminated; also recorded: reduced to a greater extent

Compound: cycMO: translation blocking morpholino against cyc, 5′-GCGACTCCGAGCGTGTGCATGATG-3′ (SEQ ID NO:3), tagged with fluorescein (all phosphorodiamidate morpholino (PMO); fluorescein tag, position not given here)
- embryos with normal shields (sqt and cyc transcripts; 6 hpf): 100%
- embryos indistinguishable from embryos injected with control MOs (sqt and cyc transcripts; 24 hpf): 100%

Compound: sqtMO: translation blocking morpholino against sqt, 5′-ATGTCAAATCAAGGTAATAATCCAC-3′ (SEQ ID NO:1), tagged with lissamine (all phosphorodiamidate morpholino (PMO); lissamine tag, position not given here)
- embryos lacking the embryonic shield (sqt and cyc transcripts; 6 hpf): 54%
- embryos displaying mild cyclopia (sqt and cyc transcripts; 24 hpf): 16%
